The text below walks through data of patent US20060183901A1, “Crystalline form of an indazole-carboxamide compound” (THERAVANCE, INC., priority 2005, published 2006).

Structures are written as SMILES. Bounds are passed on as bounds.

In data set [1] the target is T1, human 5-HT4(c) receptor (Homo sapiens, UniProt Q13639). Put plainly: Radioligand binding assay on 5-HT4(c) human receptors. Set-up: expressed in transfected cells. The method, then: Assay 1: Radioligand Binding Assay on 5-HT4(c) Human Receptors a. Membrane Preparation 5-HT4(c)
T1 sequence (Q13639 1-380 isoform Q13639-4): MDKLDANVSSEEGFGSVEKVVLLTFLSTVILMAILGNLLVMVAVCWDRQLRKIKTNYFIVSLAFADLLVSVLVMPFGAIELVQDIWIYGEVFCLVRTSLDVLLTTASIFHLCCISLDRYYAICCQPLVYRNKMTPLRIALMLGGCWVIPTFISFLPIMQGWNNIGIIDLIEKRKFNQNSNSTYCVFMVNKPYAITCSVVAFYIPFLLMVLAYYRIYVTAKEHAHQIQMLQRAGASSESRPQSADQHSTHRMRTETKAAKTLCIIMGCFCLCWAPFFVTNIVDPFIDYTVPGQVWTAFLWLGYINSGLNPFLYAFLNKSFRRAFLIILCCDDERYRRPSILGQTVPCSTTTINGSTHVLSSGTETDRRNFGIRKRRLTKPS
Cells were grown under continuous selection pressure by the addition of 800 μg/mL geneticin (GIBCO-Invitrogen Corp.: Cat #10131) to the medium.
Cells were grown to roughly 60-80% confluency (<35 subculture passages). At 20-22 hours prior to harvesting, cells were washed twice and fed with serum-free DMEM. […] The cell monolayer was lifted by gentle mechanical agitation and trituration with a 25 mL pipette.
For the membrane preparation, cell pellets were resuspended in ice-cold 50 mM 4-(2-hydroxyethyl)-1-piperazineethanesulphonic acid (HEPES), pH 7.4 (membrane preparation buffer) (40 mL/total cell yield from 30-40 T225 flasks) and homogenized using a polytron disrupter (setting 19, 2×10 s) on ice. The resultant homogenates were centrifuged at 1200 g for 5 min at 4° C. […] Protein concentration of the membrane suspension was determined by the method of Bradford (Bradford, 1976). […]
Non-specific binding was determined in the presence of 1 μM unlabeled GR113808.
Binding data were analyzed by nonlinear regression analysis with the GraphPad Prism Software package (GraphPad Software, Inc., San Diego, Calif.) using the 3-parameter model for one-site competition. […] Results are expressed as the negative decadic logarithm of the Ki values, pKi.

Data set [2] deals with T1, human 5-HT4(c) receptor. Put plainly: Whole-cell cAMP accumulation flashplate assay with HEK-293 cells expressing human 5-HT4(c) receptors. Format: cell-based. Set-up: expressed in transfected cells; host or cells: HEK-293. The method, then: The plates were sealed and incubated at 4° C. overnight.
Potency data are reported as pEC50 values, the negative decadic logarithm of the EC50 value, where EC50 is the effective concentration for a 50% maximal response.
(In general: cAMP levels reflect the balance of adenylyl cyclase and phosphodiesterase activity.)

Data set [3] in a line: Pharmacokinetic study in the rat. The settings on record: in vivo. The method, then:
Assay 6: Pharmacokinetic Study in the Rat
Aqueous solution formulations of test compounds were prepared in 0.1% lactic acid at a pH of between about 5 and about 6. Male Sprague-Dawley rats (CD strain, Charles River Laboratories, Wilmington, Mass.) were dosed with test compounds via intravenous administration (IV) at a dose of 2.5 mg/kg or by oral gavage (PO) at a dose of 5 mg/kg. The dosing volume was 1 mL/kg for IV and 2 mL/kg for PO administration. Serial blood samples were collected from animals pre-dose, and at 2 (IV only), 5, 15, and 30 min, and at 1, 2, 4, 8, and 24 hours post-dose. Concentrations of test compounds in blood plasma were determined by liquid chromatography-mass spectrometry analysis (LC-MS/MS) (MDS SCIEX, API 4000, Applied Biosystems, Foster City, Calif.) with a lower limit of quantitation of 1 ng/mL.
Standard pharmacokinetic parameters were assessed by non-compartmental analysis (Model 201 for IV and Model 200 for PO) using WinNonlin (Version 4.0.1, Pharsight, Mountain View, Calif.). The maximum in the curve of test compound concentration in blood plasma vs. time is denoted Cmax. The area under the concentration vs. time curve from the time of dosing to the last measurable concentration (AUC(0-t)) was calculated by the linear trapezoidal rule. Oral bioavailability (F(%)), i.e. the dose-normalized ratio of AUC(0-t) for PO administration to AUC(0-t) for IV administration, was calculated as: F(%)=AUCPO/AUCIV×DoseIV/DosePO×100%

[4] abbreviates: male Sprague-Dawley rats, PO 5 mg/kg, blood plasma.

In the case of `CC(=O)N1CCN(CCN2C3CCC2CC(NC(=O)c2nn(C(C)C)c4ccccc24)C3)CC1` [compound of formula I, 1-isopropyl-1H-indazole-3-carboxylic acid {(1S,3R,5R)-8-[2-(4-acetylpiperazin-1-yl)ethyl]-8-azabicyclo[3.2.1]oct-3-yl}amide], the Ki (usually a measure of affinity in units of concentration, obtained from inhibition or displacement) at human 5-HT4(c) receptor [1] is less than 0.1 µM. Also, the EC50 (in general, the concentration at which the effect is half-maximal) on human 5-HT4(c) receptor [2] was less than 0.0316 µM. Further, in data set [3] (setting [4]), the AUC(0-t) (as a rule, the area under the concentration-time curve up to a stated or last time point) worked out at 0.73 µg·h/mL and the Cmax (in general, the highest concentration seen after dosing) worked out at 0.25 µg/mL. In data set [3] (male, Sprague-Dawley, PO 5 mg/kg vs IV 2.5 mg/kg, read-out: oral bioavailability (F(%))), the bioavailability (commonly the share of a dose that reaches the circulation, judged against a reference dose that is usually intravenous) is roughly 100%.
